Experimental data: US20030109567A1, “Novel angiogenesis inhibitor” (RIKEN, priority 2001, published 2003)

Assay: Solubility (physicochemical properties)
Method: The syrup was dissolved in chloroform 10 ml and applied to a silica gel column charged with chloroform (4 cm diameter, 60 cm length). Initially, elution was performed with chloroform 500 ml, then with each 500 ml of a chloroform/methanol solution having a successively changed mixing ratio (100:0, 100:2, 50:1, 20:1, 10:1, 5:1, 1:1). The compound of the present invention, RKB-3134A, was eluted in a fraction with the chloroform/methanol solution (50:1). The fraction was concentrated under reduced pressure to give a brown syrup 1.4 g. Then, the brown syrup 1.4 g was dissolved in a methanol/acetonitrile solution (1:1, 14 ml) and made into aliquots, and purified by high performance liquid chromatography (acetonitrile : water=2:8→acetonitrile : water=1:1; linear gradient (30 minutes), flow rate 9.0 ml/min) using a reverse phase ODS column (2 cm diameter, 25 cm length, PEGASIL ODS, Senshu Kagaku Co.) to give RKB-3134A. Recrystallization was further carried out from a mixed solvent of hexane/ethyl acetate/methanol to give a pure RKB-3134A (90 mg) as pale yellow powder. Physicochemical properties of RKB-3134A are shown below.
Insoluble in n-hexane or water.

Solubility in methanol, acetone, or dimethyl sulfoxide (solvent: methanol, acetone, or dimethyl sulfoxide): easily soluble | Solubility in n-hexane or water (solvent: n-hexane or water): Insoluble
Structure (SMILES): CC/C=C/C=C/C1=C(C)C(=O)C2(O1)C(=O)NC(O)(Cc1ccccc1)C2O (centres unmarked) [RKB-3134A]
